Columns and labels:
neurokinin-1 receptor = neurokinin-1 receptor (Homo sapiens, UniProt P25103); assay: Tachykinin antagonism assay: inhibition of Substance P-induced calcium mobilization (FLIPR) in U373 MG cells; assay type: cell-based; conditions: Substance P 1 nM
Protocol: An assay measuring the ability of compounds 1–50 to antagonize binding of substance P peptide to its receptor neurokinin-1 was performed. Substance P is known to act upon cells via the mobilization of calcium (Bordey et al., Glia 11: 277–283, 1994). The compounds were assessed for their ability to inhibit the action of Substance P with the use of a Fluorescent Imaging Plate Reader (FLIPR) from Molecular Devices (Shroeder et al., J. Biomol. Screening 1: 75–80, 1996; U.S. Pat. No. 5,112,134; U.S. Pat. No. 4,968,148). […] This dye is similar to Fluo-3, Fluo-4, and Calcium Green dyes used by other researchers (Lin et al., Biotechniques 26: 318–326, 1999) in that it increases in fluorescence in the presence of calcium; the Molecular Devices version is preferable because the cells need not be washed following staining with the dye. […] Substance P was added in Hank's salt solution with 1% BSA to give a final concentration of 1 nM and the resultant change in fluorescence intensity was monitored for thirty seconds with an excitation wavelength of 480 nm and an emission of 515 nm. Some wells were maintained as controls which were not incubated with any compound, and the peak fluorescence readings resulting from the wells which received compounds were compared to these control wells in order to determine the degree of inhibition.

α4β1 integrin = molecular target: T1, α4β1 integrin (Homo sapiens, UniProt P05556+P13612); assay: Antagonism of binding of CS1 peptide to α4β1 integrin (calcein-labelled Ramos cell adhesion to biotinylated CS1 plate); assay type: cell-based; conditions: Ramos cells
T1 construct: Harvested Ramos cells; endogenous in cells; host or cells: Ramos cells
T1 sequence (P13612 34-1032): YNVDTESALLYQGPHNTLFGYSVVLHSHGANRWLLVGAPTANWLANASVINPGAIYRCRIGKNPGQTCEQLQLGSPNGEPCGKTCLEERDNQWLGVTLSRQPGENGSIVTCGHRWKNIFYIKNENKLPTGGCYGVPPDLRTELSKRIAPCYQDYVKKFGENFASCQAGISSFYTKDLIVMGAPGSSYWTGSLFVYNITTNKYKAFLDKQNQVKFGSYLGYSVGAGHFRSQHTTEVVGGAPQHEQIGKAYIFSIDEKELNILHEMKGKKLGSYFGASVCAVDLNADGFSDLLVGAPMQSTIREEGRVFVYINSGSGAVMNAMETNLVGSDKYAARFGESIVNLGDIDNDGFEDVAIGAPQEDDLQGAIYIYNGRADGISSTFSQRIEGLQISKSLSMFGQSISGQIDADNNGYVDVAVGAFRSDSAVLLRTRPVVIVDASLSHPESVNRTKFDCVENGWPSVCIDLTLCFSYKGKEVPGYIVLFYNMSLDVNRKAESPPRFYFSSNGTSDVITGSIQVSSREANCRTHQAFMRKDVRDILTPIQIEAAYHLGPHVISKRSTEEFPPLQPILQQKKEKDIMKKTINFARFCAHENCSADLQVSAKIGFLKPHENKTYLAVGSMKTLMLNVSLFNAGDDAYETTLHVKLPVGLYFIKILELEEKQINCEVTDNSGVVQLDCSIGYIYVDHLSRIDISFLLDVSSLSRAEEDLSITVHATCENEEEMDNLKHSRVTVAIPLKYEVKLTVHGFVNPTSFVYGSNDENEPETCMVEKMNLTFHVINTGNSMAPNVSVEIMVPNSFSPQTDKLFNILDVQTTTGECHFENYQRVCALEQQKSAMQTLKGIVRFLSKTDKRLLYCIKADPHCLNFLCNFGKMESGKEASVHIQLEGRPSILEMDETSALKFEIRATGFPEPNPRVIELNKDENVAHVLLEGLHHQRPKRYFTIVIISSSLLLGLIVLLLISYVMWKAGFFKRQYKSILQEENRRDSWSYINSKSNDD
T1 sequence (P05556 21-798): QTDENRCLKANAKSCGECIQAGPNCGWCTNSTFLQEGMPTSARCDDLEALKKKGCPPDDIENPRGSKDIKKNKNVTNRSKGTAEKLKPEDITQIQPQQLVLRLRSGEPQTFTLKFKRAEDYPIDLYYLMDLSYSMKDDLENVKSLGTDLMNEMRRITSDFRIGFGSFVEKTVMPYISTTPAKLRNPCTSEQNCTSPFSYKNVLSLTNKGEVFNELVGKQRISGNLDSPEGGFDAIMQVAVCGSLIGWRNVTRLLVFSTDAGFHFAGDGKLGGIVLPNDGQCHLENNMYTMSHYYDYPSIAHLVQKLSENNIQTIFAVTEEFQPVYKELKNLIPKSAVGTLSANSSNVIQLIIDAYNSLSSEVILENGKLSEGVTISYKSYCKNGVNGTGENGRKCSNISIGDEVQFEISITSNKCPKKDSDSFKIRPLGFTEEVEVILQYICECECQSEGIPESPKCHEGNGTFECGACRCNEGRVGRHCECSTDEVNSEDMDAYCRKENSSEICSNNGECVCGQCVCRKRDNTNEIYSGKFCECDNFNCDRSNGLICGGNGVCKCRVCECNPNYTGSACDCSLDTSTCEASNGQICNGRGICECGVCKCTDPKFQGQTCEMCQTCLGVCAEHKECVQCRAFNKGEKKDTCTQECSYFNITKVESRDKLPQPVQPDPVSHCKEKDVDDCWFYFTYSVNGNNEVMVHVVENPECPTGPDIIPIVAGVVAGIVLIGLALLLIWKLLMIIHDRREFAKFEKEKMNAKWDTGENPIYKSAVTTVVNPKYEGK
Protocol: In brief, 100 μL/well of a solution of biotinylated CS1 peptide (1 mg/100 mL of phosphate buffered saline (PBS)) was incubated in a NeutrAvidin plate (Pierce) for 1 h at room temperature. The plate was then washed 3× with distilled water and treated with 200 μL of blocking buffer (3% BSA in PBS) for at least 4 h. Blocked plates were washed as above. Harvested Ramos cells (10^7/mL) were resuspended in PBS containing 10 μL of calcein AM/mL and incubated 30 min in the dark. This suspension was diluted with 45 mL PBS and the cells harvested by centrifugation and aspiration. The cells were resuspended in binding buffer (˜5×10^5/mL). If cell lysis was to be monitored ethidium homodimer was added to the buffer to a final concentration of 5 μM. A solution (10 μL) of compound to be tested or control peptide was added to appropriate wells followed by 90 μL of the cell suspension. The plate was incubated at 37° C. for 1 h. […] Otherwise, the plate was washed 3×, 50 μL of lysis buffer was added to each well, the plate rocked in the dark for 10 min, and the fluorescence monitored at 485 nm excitation and 535 nm emission.

Sequence of neurokinin-1 receptor (P25103 whole entry): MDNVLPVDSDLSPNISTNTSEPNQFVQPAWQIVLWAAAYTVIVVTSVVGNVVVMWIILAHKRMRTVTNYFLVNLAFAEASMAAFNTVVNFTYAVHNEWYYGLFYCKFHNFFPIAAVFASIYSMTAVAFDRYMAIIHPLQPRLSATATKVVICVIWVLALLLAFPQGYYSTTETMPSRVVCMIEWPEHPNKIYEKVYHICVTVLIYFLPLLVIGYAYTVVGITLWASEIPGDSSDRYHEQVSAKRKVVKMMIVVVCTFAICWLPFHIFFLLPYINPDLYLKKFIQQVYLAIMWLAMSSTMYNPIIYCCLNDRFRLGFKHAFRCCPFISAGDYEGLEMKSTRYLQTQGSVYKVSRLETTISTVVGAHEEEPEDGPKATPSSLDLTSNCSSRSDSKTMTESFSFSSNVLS

inhibition at 20 µM (neurokinin-1 receptor) [%] | inhibition at 100 µM (α4β1 integrin) [%] | SMILES
> 25 | > 50 | CC12OC(=O)[C@H](Cc3ccccc3)N1C(=O)[C@H]1CCCN1C2=O (stereo partly drawn) [Compound 45]
 | > 50 | O=C1C[C@H](Cc2ccccc2)N2C(=O)[C@H](Cc3ccc(O)cc3)N(CC3CCCCC3)C(=O)C2O1 (stereo partly drawn) [Compound 47]

Reference: US7008941B2, “Reverse-turn mimetics and methods relating thereto” (Myriad Genetics, Inc., priority 2001, dated 2006)
